# Legend:
# bovine spermatozoa [1] = assay: Effects of medium components on bovine sperm motility after 24 hours at RT (Experiment 2); format: cell-based; conditions: for effect on sperm motility at the 24 h mark as determined by CASA: field conditions, rosiglitazone 0-100 μM, sugar source, coenzyme Q10; for total and progressive motilities when 50% of the NaCl was replaced: L-carnitine 100 mM or choline chloride 95 mM
# Excerpt: Institutional and New South Wales State Government ethical approval was secured for the use of animal material in this study. This research was based on ejaculates from 17 normozoospermic Angus bulls (between 3 and 7 years of age) of proven fertility, held on institutionally-approved premises at Charles Sturt University ([…], Australia). Semen was collected via electro-ejaculation, and the ejaculate was either left undiluted (Experiment 1) or was immediately diluted (2:1; extender:semen) with INRA96 (Experiments 2 and 3-Sections 2 and 3). […] Equipment and extender medium were maintained at temperatures between 30° C. and 37° C. for the duration of semen collection and dilution. The tubes of extended semen were then held in the laboratory at RT (approx. 20 to 25° C.) for up to 30 min prior to further processing. For Experiment 1, up to 6 mL of the extended semen was either centrifuged directly (700×g for 10 min), or was overlaid on top of BoviPureTM gradient and centrifuged at 700×g for 20 min, and for Experiments 2 and 3 up to 5 mL extended semen was layered on top of PercollTM gradients and centrifuged at 700×g for 30 min. Following centrifugation, the seminal plasma and density gradient media were removed and discarded. Spermatozoa were recovered from the base of the tubes, resuspended in 2 mL BWW and washed via centrifugation (500×g for 5 min) with BWW. These pelleted cells were then resuspended at a concentration of 50×10^6 spermatozoa/mL in the experimental extender media. Sperm motility was objectively determined with computer assisted sperm analysis (CASA; IVOS, Hamilton Thorne, Danvers, MA) using the following settings; negative phase-contrast optics, recording rate of 60 frames/s, minimum contrast of 70, minimum cell size of 4 pixels, low size gate of 0.17, high size gate of 2.9, low intensity gate of 0.6, high intensity gate of 1.74, non-motile head size of 10 pixels, non-motile head intensity of 135, progressive VAP threshold of 50 μm/s, slow (static) cells VAP threshold of 20 μm/s, slow (static) cells VSL threshold of 0 μm/s and threshold STR of 75%. […] Cells with a VAP greater than that of the mean VAP of progressive cells were considered 'rapid'. A minimum of 200 spermatozoa in a minimum of five fields were assessed using 20 μm Leja standard count slides ([…], Australia) and a stage temperature of 37° C.
# bovine spermatozoa [2] = assay: Comparison of amino acid osmolytes on bovine sperm motility during liquid storage at RT; format: cell-based; conditions: for total and progressive motilities compared with other osmolyte treatments: Part 1, 7 days storage at RT, n=10 bulls; for total and progressive motilities compared with other osmolyte treatments / motility by day 14 of storage / loss in motility between 3 and 10 days of storage: 82.2 mM in base solution without NaCl; for motility by day 14 of storage / loss in motility between 3 and 10 days of storage / motility compared with NaCl and choline chloride controls: Part 2; for motility by day 14 of storage / loss in motility between 3 and 10 days of storage: RT; for loss in motility between 3 and 10 days of storage: n=9 bulls; for motility compared with NaCl and choline chloride controls: all time points (3, 7, 10, 14 days) at RT; for capability to prolong bovine sperm motility at room temperature: amino acid as osmolyte in extender medium
# Excerpt: (§1) Sperm motility was objectively determined with computer assisted sperm analysis (CASA; IVOS, Hamilton Thorne, Danvers, MA) using the following settings; negative phase-contrast optics, recording rate of 60 frames/s, minimum contrast of 70, minimum cell size of 4 pixels, low size gate of 0.17, high size gate of 2.9, low intensity gate of 0.6, high intensity gate of 1.74, non-motile head size of 10 pixels, non-motile head intensity of 135, progressive VAP threshold of 50 μm/s, slow (static) cells VAP threshold of 20 μm/s, slow (static) cells VSL threshold of 0 μm/s and threshold STR of 75%. […] Cells with a VAP greater than that of the mean VAP of progressive cells were considered ‘rapid’. A minimum of 200 spermatozoa in a minimum of five fields were assessed using 20 μm Leja standard count slides (Gytech, Australia) and a stage temperature of 37° C.
# Bull semen (animals were housed at Charles Sturt University, Wagga Wagga, NSW, Australia) was collected via electroejaculation, immediately diluted 2:1 (extender:semen) with equine INRA96™ semen extender, and maintained at room temperature (RT) before further processing. Extended semen was then layered onto a discontinuous (45/90%) Percoll™ gradient and centrifuged at 700×g for 30 min to isolate high quality spermatozoa to be used for storage experiments described below. The high-quality pelleted spermatozoa were then resuspended in modified Biggers, Whitter and Whittingham (BWW) medium (Gibb et al., 2014) and washed again via centrifugation (300×g for 5 min). Pelleted spermatozoa were then resuspended in the various formulations described in each experiment, and stored in 5 mL Sarstedt specimen pots at RT (21-23° C.) in the dark until they were assessed.
# This study was undertaken in 2 parts: the first was a screening of soluble amino acids (spermatozoa from split ejaculates of n=10 bulls), and the second was to confirm the results of the first part using only the most successful 3 amino acids (spermatozoa from split ejaculates of n=9 bulls). Sodium chloride and choline chloride were used as osmolyte controls.
# The base bovine extender solution described above (Example 1, Experiment 3) was utilised for the purposes of these evaluations, with the exception that the 41.1 mM NaCl was not included in the base solution to which either the test amino acid or choline chlorine was added. Test amino acid was added to the base solution to a final concentration of 82.2 mM whilst the controls contained either the NaCl or choline chloride to a final concentration of 41.1 mM. The initial pH of solutions varied between 7-10 and were adjusted to be between 7.5 and 8.0 with either KOH or HCl. All test media were supplemented with 100 U/ml Nystatin to control fungal growth. Sperm motility was assessed as per Example 1.
# For Part 1 of the study, motility was evaluated following 7 days liquid storage at room temperature (RT). Motility of spermatozoa was evaluated at 3, 7, 10 and 14 days liquid storage at RT for Part 2 of the study. Data were again analysed using JMP v14 software (ANOVA).
# [3] = Lide, Handbook of Chemistry and Physics, 72nd Edition; cited from earlier work
# bovine spermatozoa [4] = assay: Fungicide comparison on bovine sperm motility; format: cell-based; conditions: Nystatin 100 U/mL, Fluconazole 12.5 mg/L and 25 mg/L; 1, 3, 7, 10 and 14 days at RT in glycine (82.2 mM) medium
# Excerpt: as §1, with “C. […]” for “C.”
# Semen was collected, processed and stored according as above (Example 2, Section 1.1). Following 1, 3, 7, 10 and 14 days of storage at RT in the base extender solution as described (Example 2, Experiment 2) supplemented with glycine to a final concentration of 82.2 mM (pH of the medium was 7.9), sperm motility was assessed using CASA as above. Data were analysed using JMP v14 software (ANOVA).
structure (smiles),measurement,setting,value
CC(=O)C(=O)[O-].[Na+] [Sodium pyruvate],difference in sperm motility versus absence of the component,"bovine spermatozoa [1]; 0.275 mM to 20 mM, 24 hours at RT",No significant difference
COC1=C(OC)C(=O)C(C/C=C(\C)CC/C=C(\C)CC/C=C(\C)CC/C=C(\C)CC/C=C(\C)CC/C=C(\C)CC/C=C(\C)CC/C=C(\C)CC/C=C(\C)CCC=C(C)C)=C(C)C1=O [coenzyme Q10],effect on sperm motility at the 24 h mark as determined by CASA,bovine spermatozoa [1],No significant effects
O=C(CO)[C@@H](O)[C@H](O)[C@H](O)CO [fructose],effect on sperm motility at the 24 h mark as determined by CASA,bovine spermatozoa [1],No significant effects
"NCCS(=O)(=O)O [taurine, 2-aminoethane-1-sulfonic acid]",total and progressive motilities compared with other osmolyte treatments,bovine spermatozoa [2],significantly higher than all other treatments
same,"total and progressive motility, taurine compared with valine",bovine spermatozoa [2]; day 3 of liquid storage,better total and progressive motility
CC(C)[C@H](N)C(=O)O [valine],total and progressive motilities compared with other osmolyte treatments,bovine spermatozoa [2],substantially better
same,motility by day 14 of storage,bovine spermatozoa [2],significantly declined
same,loss in motility between 3 and 10 days of storage,bovine spermatozoa [2],did not suffer any significant loss in motility
same,motility compared with NaCl and choline chloride controls,bovine spermatozoa [2],significantly higher than both of the controls
same,"motility, valine compared with taurine","bovine spermatozoa [2]; day 14 of liquid storage, data not shown",better motility
same,isoelectric point (pI),[3],5.96
OC(Cn1cncn1)(Cn1cncn1)c1ccc(F)cc1F [Fluconazole],difference in sperm motility between antifungal treatments and control with no antifungal,bovine spermatozoa [4],No significant differences
C[N+](C)(C)C[C@H](O)CC(=O)[O-] [L-carnitine],total and progressive motilities when 50% of the NaCl was replaced,bovine spermatozoa [1]; 24 hours at RT,improved
CSCC[C@H](N)C(=O)O [methionine],capability to prolong bovine sperm motility at room temperature,bovine spermatozoa [2],no or only relatively limited capability
same,isoelectric point (pI),[3],5.74
CC[C@H](C)[C@H](N)C(=O)O [isoleucine],capability to prolong bovine sperm motility at room temperature,bovine spermatozoa [2],no or only relatively limited capability
same,isoelectric point (pI),[3],6.02
OC[C@H]1O[C@@](CO)(O[C@H]2O[C@H](CO)[C@@H](O)[C@H](O)[C@H]2O)[C@@H](O)[C@@H]1O [sucrose],effect on sperm motility at the 24 h mark as determined by CASA,bovine spermatozoa [1],No significant effects
"C[N+](C)(C)CCO.[Cl-] [choline chloride, reference compound]",total and progressive motilities when 50% of the NaCl was replaced,bovine spermatozoa [1]; 24 hours at RT,improved
N[C@@H](Cc1c[nH]c2ccccc12)C(=O)O [tryptophan],capability to prolong bovine sperm motility at room temperature,bovine spermatozoa [2],no or only relatively limited capability
same,isoelectric point (pI),[3],5.89
OC[C@H]1O[C@H](OC[C@H]2O[C@H](O[C@]3(CO)O[C@H](CO)[C@@H](O)[C@@H]3O)[C@H](O)[C@@H](O)[C@@H]2O)[C@H](O)[C@@H](O)[C@H]1O [raffinose],effect on sperm motility at the 24 h mark as determined by CASA,bovine spermatozoa [1],No significant effects
NCC(=O)O [glycine],total and progressive motilities compared with other osmolyte treatments,bovine spermatozoa [2],significantly higher than all other treatments
same,motility by day 14 of storage,bovine spermatozoa [2],significantly declined
same,loss in motility between 3 and 10 days of storage,bovine spermatozoa [2],did not suffer any significant loss in motility
same,motility compared with NaCl and choline chloride controls,bovine spermatozoa [2],significantly higher than both of the controls
same,isoelectric point (pI),[3],5.97
N[C@@H](CS)C(=O)O [cysteine],capability to prolong bovine sperm motility at room temperature,bovine spermatozoa [2],no or only relatively limited capability
same,isoelectric point (pI),[3],5.07
CC(C)C[C@H](N)C(=O)O [leucine],capability to prolong bovine sperm motility at room temperature,bovine spermatozoa [2],no or only relatively limited capability
C[C@H](N)C(=O)O [alanine],total and progressive motilities compared with other osmolyte treatments,bovine spermatozoa [2],significantly higher than all other treatments
same,motility by day 14 of storage,bovine spermatozoa [2],significantly declined
same,loss in motility between 3 and 10 days of storage,bovine spermatozoa [2],did not suffer any significant loss in motility
same,motility compared with NaCl and choline chloride controls,bovine spermatozoa [2],significantly higher than both of the controls
same,isoelectric point (pI),[3],6.0
O=C(O)[C@@H]1CCCN1 [proline],capability to prolong bovine sperm motility at room temperature,bovine spermatozoa [2],no or only relatively limited capability
same,isoelectric point (pI),[3],6.3
N[C@@H](Cc1ccccc1)C(=O)O [phenylalanine],capability to prolong bovine sperm motility at room temperature,bovine spermatozoa [2],no or only relatively limited capability
same,isoelectric point (pI),[3],5.48

# From patent US20250019648A1, “A SPERM EXTENDER MEDIUM” (MEAT & LIVESTOCK AUSTRALIA LIMITED, priority 2021, published 2025)
